Literature values, collected in patent publication US4384994A, “Renin inhibitory peptides” (Merck & Co., Inc., priority 1981, dated 1983).

How the values were obtained:
pepsin = pepsin (Homo sapiens, UniProt P0DJD8); conditions: Umezawa et al. 1970
hog renin = conditions: nephrectomized rats, after injection of hog renin; Gross et al. 1971

pepsin, sequence (P0DJD8 63-388): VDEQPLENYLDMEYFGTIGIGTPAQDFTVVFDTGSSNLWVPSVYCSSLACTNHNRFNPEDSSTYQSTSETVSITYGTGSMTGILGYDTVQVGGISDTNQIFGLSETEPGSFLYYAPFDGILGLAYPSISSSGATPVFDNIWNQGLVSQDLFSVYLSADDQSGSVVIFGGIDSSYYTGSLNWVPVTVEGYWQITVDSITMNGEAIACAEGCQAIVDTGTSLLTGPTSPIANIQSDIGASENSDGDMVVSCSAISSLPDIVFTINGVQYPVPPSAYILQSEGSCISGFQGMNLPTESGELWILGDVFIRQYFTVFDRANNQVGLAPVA

inhibition of pepsin (pepsin): inhibitor
Substance: pepstatin
blood pressure in vivo (hog renin): reduce blood pressure
